Laboratory results from patent US20110009496A1, “RESVERATROL FORMULATIONS” (SIRTRIS PHARMACEUTICAS, INC., priority 2008, published 2011).
Blank lines part the entries; values can stand above or below the molecule they belong to.

Experiments:
[1] = test system: HDAC; settings: in vitro or in vivo; cited from earlier work
[2] = target: cytochrome oxidase (Complex IV) (Homo sapiens, UniProt P00395); settings: cited from earlier work
[3] = target: Sir2 (Saccharomyces cerevisiae, UniProt P06700); settings: cited from earlier work
[4] = test system: retinal ganglion cells; settings: treated animals; cited from earlier work
[5] = Dilution of liquid resveratrol formulations with purified water (precipitation); type: physicochemical; settings: DS dissolved in Gelucire 44/14 at 100 mg/g
Method: A liquid formulation was prepared by dissolving resveratrol (drug substance, DS) and monoacyl phospholipid in a mixture of PEG 300 and propyleneglycol. The ratio between the DS and phospholipid was 1/12 w/w in PEG 300/propyleneglycol 1/1 w/was solvent mixture. The formulation, which has a 5% drug load, was clear after dilution in purified water for more than 4 hours. Starting from Formulation 13, the drug load was increased to 10% using the same 1/1 w/w ratio of Vit E TPGS/DS and replacing propyleneglycol with Labrasol™. Upon one-fold dilution with water a slight DS precipitation was observed. […] After a few hours, some oil droplets were visible on the surface of the water phase. To further improve Formulation 11, the use of the two lipids Gelucire™ 44/14 and Labrasol™ were explored as main components in the formulations. […] The DS precipitated in the form of oil-like droplets. […] Higher drug loads can be achieved by using the two lipids in combination with ethanol as additional solvent/excipient to fully solubilize the drug in the formulation.

[6] = test system: insulin resistant cells; settings: cited from earlier work
[7] = test system: C. elegans; settings: in vivo; cited from earlier work
[8] = test system: mammalian cells; settings: cited from earlier work
[9] = topical; cited from earlier work

Sir2, sequence (P06700 whole entry): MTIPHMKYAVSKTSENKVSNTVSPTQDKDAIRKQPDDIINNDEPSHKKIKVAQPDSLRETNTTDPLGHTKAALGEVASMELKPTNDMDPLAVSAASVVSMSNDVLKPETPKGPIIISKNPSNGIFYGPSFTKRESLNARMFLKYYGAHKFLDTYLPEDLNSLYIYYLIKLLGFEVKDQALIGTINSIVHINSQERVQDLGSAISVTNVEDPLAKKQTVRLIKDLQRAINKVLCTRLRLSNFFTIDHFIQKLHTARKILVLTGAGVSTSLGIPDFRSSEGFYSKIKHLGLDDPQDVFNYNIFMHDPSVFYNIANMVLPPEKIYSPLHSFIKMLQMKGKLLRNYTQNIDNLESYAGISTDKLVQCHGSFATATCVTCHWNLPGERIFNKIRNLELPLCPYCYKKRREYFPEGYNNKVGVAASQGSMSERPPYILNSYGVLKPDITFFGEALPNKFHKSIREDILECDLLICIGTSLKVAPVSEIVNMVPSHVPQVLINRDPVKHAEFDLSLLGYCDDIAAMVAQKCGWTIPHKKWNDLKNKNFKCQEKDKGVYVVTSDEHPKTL

Molecule: O=C(/C=C/c1cccc(C(=O)NO)c1)NO [CBHA, m-carboxy-cinnamic acid bishydroxamic acid]
inhibition of HDAC (concentration level in words) [1]: micromolar concentration or lower

Molecule: C/C=C1\NC(=O)[C@H]2CSSCC/C=C/[C@H](CC(=O)N[C@H](C(C)C)C(=O)N2)OC(=O)[C@H](C(C)C)NC1=O [Depsipeptide, depsipeptide]
inhibition of HDAC (concentration level in words) [1]: micromolar concentrations

Molecule: [N]=O [Nitric oxide]
concentration that inhibits cytochrome oxidase (Complex IV) [2]: about 1 micromolar

Molecule: CC(/C=C/C(=O)NO)=C\[C@@H](C)C(=O)c1ccc(N(C)C)cc1 [TSA, trichostatin A]
sensitivity of Sir2 to histone deacetylase inhibitors [3]: insensitive | inhibition of HDAC (concentration level in words) [1]: potent inhibitor

Molecule: N=C(N)NN [aminoguanidine]
loss of retinal ganglion cells [4]: reduction in the loss of retinal ganglion cells

precipitation after dilution with purified water [5]: precipitated in a fast manner
Molecule: Oc1ccc(/C=C/c2cc(O)cc(O)c2)cc1 [resveratrol, 3,5,4′-trihydroxystilbene]
insulin sensitivity in insulin resistant cells [6]: at least partially restore insulin sensitivity | fat accumulation in C. elegans [7]: prevent fat accumulation | fat mobilization in C. elegans [7]: promotes fat mobilization | adipogenesis in mammalian cells [8]: inhibit adipogenesis | fat mobilization in mammalian cells [8]: stimulate fat mobilization

Molecule: CC(C)(C)NC[C@H](O)COc1nsnc1N1CCOCC1 [timolol]
time for IOP to fall [9]: 30 min | time of peak effects on IOP [9]: 1 to 2 h

Molecule: depudecin
inhibition of HDAC (concentration level in words) [1]: micromolar concentrations
